Like-named read-outs stand apart in the source and are kept apart here.
How the values were obtained:
[1] = rabbit plasma, 37° C.; for Sampling time/dissociation percent (%) 15 S / Sampling time/dissociation percent (%) 30 S: formula G derivatives
Description: (§1) 0.1 ml samples were taken from each of the solutions, added respectively to 1 ml of blood plasma of rabbit (taken from New Zealand white rabbits, treated according to conventional methods, anticoagulated with heparin) or 1 ml of blood plasma of rat (taken from live SD rats, treated according to conventional methods, anticoagulated with heparin), homogeneously mixed, and placed in a thermostatic water bath at 37° C. for incubation with time being recorded. Samples were taken at different time points after the experiment began, and 2 ml of acetonitrile was immediately added. The samples were shaken and centrifuged for 5 min (15,000 rpm), and the supernatant was then taken for HPLC analysis.

[2] = rat plasma, 37° C.; for dissociation percent: 5 s
Description: as §1

[3] = test system: human ovarian cancer SK-OV-3; details: 24 mg/kg (paclitaxel 16 mg/kg) D0-4 IV; for Tumor volume (D0): D0, at grouping; for Tumor inhibitory percent (%) D22: P=0.000 compared to the control
Description: Test of the inhibitory activity of the water soluble paclitaxel derivatives on subcutaneously xenografted tumor of human ovarian cancer SK-OV-3 in nude mice: evaluating and comparing the inhibitory activity of the water soluble paclitaxel derivatives of the present invention, paclitaxel and Abraxane® on subcutaneously xenografted tumor of human ovarian cancer SK-OV-3 in nude mice.
Human ovarian cancer SK-OV-3 cells were subcutaneously inoculated to nude mice. After the tumor volume reached 100-150 mm^3, the animals were randomly divided into groups (D0), and administered with the water soluble paclitaxel derivatives of the present invention, paclitaxel, and Abraxane®, respectively once per day for 5 days. The tumor volume was measured 2-3 times per week, the animals were weighed and the data were recorded until day 22 (D22) after grouping.
The tumor volume (V) was calculated according to the equation: V=½×a×b^2, wherein a and b represent the length and the width, respectively.
T/C (%)=(T−T0)/(C−C0)×100, wherein T and C represent the tumor volume at the end of the experiment; and T0 and C0 represent the tumor volume at the beginning of the experiment.

[4] = In vitro dissociation of the water soluble taxane derivatives in blood plasma of rat; assay type: in vitro ADME, SD rats; details: 37° C.
Description: The obtained water soluble taxane derivatives were formulated as 0.2 mg/ml aqueous solutions. […] After 2 min, 5 min and 10 min of incubation, 0.2 ml of solutions were respectively taken from each of the samples, and added to acetonitrile (0.4 ml) cooled to −20° C. for precipitation of protein.

[5] = In vitro dissociation of the water soluble taxane derivatives in blood plasma of rabbit; assay type: in vitro ADME, New Zealand white rabbits; details: 37° C.
Description: The obtained water soluble taxane derivatives were formulated as 0.2 mg/ml aqueous solutions. […] After 5 min, 20 min and 60 min of incubation, 0.2 ml of solutions were respectively taken from each of the samples, and added to acetonitrile (0.4 ml) cooled to −20° C. for precipitation of protein.

[6] = formula G derivatives, sampling time 5 s
[7] = formula G derivatives, sampling time 15 s
[8] = formula F derivatives, sampling time 15 s

SMILES | Tumor volume (D0) [3] | Weight change (%) D4 [3] | T/C (%) D22 [3] | Tumor volume (D22) [3] | Tumor inhibitory percent (%) D22 [3] | other results
CC(C)c1cccc(C(C)C)c1OC(=O)C(F)CCOP(=O)([O-])[O-].[K+].[K+] (racemic) [Compound G1, {1-[4-(2,6-diisopropylphenoxy)-4-oxo-3-(R,S)-3-fluoro-1-butyl]} phosphate monoester dipotassium salt] | – | – | – | – | – | Sampling time/dissociation percent (%) 15 S ([1]; sampling time 15 s): 43.7%; Sampling time/dissociation percent (%) 30 S ([1]; sampling time 30 s): 68.7%; Sampling time/dissociation percent (%) 5 S [2, 6]: 54.1%; Sampling time/dissociation percent (%) 15 S [2, 7]: 67.4%; Sampling time/dissociation percent (%) 30 S ([2]; formula G derivatives, sampling time 30 s): 86.9%
CC(C)c1cccc(C(C)C)c1OC(=O)C(CF)CP(=O)([O-])[O-].CC(C)c1cccc(C(C)C)c1OC(=O)C(CF)CP(=O)([O-])[O-].CC(C)c1cccc(C(C)C)c1OC(=O)C(CF)CP(=O)([O-])[O-].[Al+3].[Al+3] (racemic) [Compound G6, tri[propofol 3-phosphoryl-2(R,S)-2-monofluoromethylpropionate] dialuminum salt] | – | – | – | – | – | Sampling time/dissociation percent (%) 15 S ([1]; sampling time 15 s): 27.1%; Sampling time/dissociation percent (%) 30 S ([1]; sampling time 30 s): 44.3%; Sampling time/dissociation percent (%) 5 S [2, 6]: 22.1%; Sampling time/dissociation percent (%) 15 S [2, 7]: 39.7%
CC(C)c1cccc(C(C)C)c1OC(=O)[C@H](F)CCN1CCCC1.Cl [Compound E8, propofol 4-(pyrrolidin-1-yl)-2(R)-2-fluorobutyrate hydrochloride] | – | – | – | – | – | dissociation percent ([1]; 15 s): 91.1%; dissociation percent ([1]; 30 s): 98.2%; dissociation percent [2]: 95.6%
CCN(C)CC[C@@H](F)C(=O)O[C@@H](C(=O)O[C@H]1C[C@@]2(O)[C@@H](OC(=O)c3ccccc3)[C@@H]3[C@]4(OC(C)=O)CO[C@@H]4C[C@H](O)[C@@]3(C)C(=O)[C@H](OC(C)=O)C(=C1C)C2(C)C)[C@@H](NC(=O)c1ccccc1)c1ccccc1.CS(=O)(=O)O [Compound 16, 2′-O-[4-(N-methyl-N-ethyl)amino-2(R)-fluorobutyryl]paclitaxel methanesulfonate] | 133.6 ± 9.4 mm^3 | −7.0% | −53% | 55.7 ± 10.6 mm^3 | 137% | –
CC(C)c1cccc(C(C)C)c1OC(=O)C(CF)CCCCCCC(=O)[O-].CC(C)c1cccc(C(C)C)c1OC(=O)C(CF)CCCCCCC(=O)[O-].CC(C)c1cccc(C(C)C)c1OC(=O)C(CF)CCCCCCC(=O)[O-].[Al+3] (racemic) [Compound F6, tri[propofol 8-carboxyl-2(R,S)-monofluoromethylpelargonate] aluminum salt] | – | – | – | – | – | Sampling time/dissociation percent (%) 15 s [1, 8]: 37.1%; Sampling time/dissociation percent (%) 30 s ([1]; formula F derivatives, sampling time 30 s): 58.3%; Sampling time/dissociation percent (%) 5 s ([2]; formula F derivatives, sampling time 5 s): 34.2%; Sampling time/dissociation percent (%) 15 s [2, 8]: 55.7%
CC(=O)OC1C(=O)C2(C)C(O)CC3OCC3(OC(C)=O)C2C(OC(=O)c2ccccc2)C2(O)CC(OC(=O)C(OC(=O)C(CCN(C)C)C(F)(F)F)C(NC(=O)c3ccccc3)c3ccccc3)C(C)=C1C2(C)C.Cc1ccc(S(=O)(=O)O)cc1 [Compound 19, 2′-O-[4-(N,N-dimethyl)amino-2(R,S)-2-trifluoromethylbutyryl]paclitaxel p-toluene sulfonate] | 134.9 ± 11.4 mm^3 | −8.9% | −48% | 57.3 ± 11.4 mm^3 | 124% | –
CC(C)c1cccc(C(C)C)c1OC(=O)[C@@H](CCN(C)C)C(F)(F)F.Cl [Compound E3, propofol 4-(N,N-dimethyl)amino-2(R)-2-trifluoromethylbutyrate hydrochloride] | – | – | – | – | – | dissociation percent ([1]; 15 s): 51.7%; dissociation percent ([1]; 30 s): 67.2%; dissociation percent [2]: 77.5%
CC(=O)O[C@H]1C(=O)[C@@]2(C)[C@H]([C@H](OC(=O)c3ccccc3)[C@]3(O)C[C@H](OC(=O)[C@H](OC(=O)C(F)CCN(C)C)[C@@H](NC(=O)c4ccccc4)c4ccccc4)C(C)=C1C3(C)C)[C@]1(OC(C)=O)CO[C@@H]1C[C@@H]2O.CS(=O)(=O)O (stereo partly drawn) [Compound C3, 2′-O-[4-(N,N-dimethyl)amino-2(R,S)-fluorobutyryl]paclitaxel methanesulfonate] | – | −6.0% | −64% | 50.6 ± 9.7 mm^3 | 165% | dissociation percent ([4]; 2 min): 63.7%; dissociation percent ([4]; 5 min): 96.8%; dissociation percent ([4]; 10 min): 100%; dissociation percent ([5]; 5 min): 76.5%; dissociation percent ([5]; 20 min): 94.6%; dissociation percent ([5]; 60 min): 100%
CC(=O)OC1C(=O)C2(C)C(O)CC3OCC3(OC(C)=O)C2C(OC(=O)c2ccccc2)C2(O)CC(OC(=O)C(OC(=O)C(CCCCN(C)C)C(F)F)C(NC(=O)c3ccccc3)c3ccccc3)C(C)=C1C2(C)C.O=S(=O)(O)O [Compound 22, 2′-O-[6-(N,N-dimethyl)amino-2(S)-2-difluoromethylhexanoyl]paclitaxel sulfate] | 133.8 ± 12.2 mm^3 | −11.6% | −14% | 79.8 ± 12.8 mm^3 | 36% | –
CCN(CC)CC[C@H](F)C(=O)O[C@@H](C(=O)O[C@H]1C[C@@]2(O)[C@@H](OC(=O)c3ccccc3)[C@@H]3[C@]4(OC(C)=O)CO[C@@H]4C[C@H](O)[C@@]3(C)C(=O)[C@H](OC(C)=O)C(=C1C)C2(C)C)[C@@H](NC(=O)c1ccccc1)c1ccccc1.O=C(O)/C=C/C(=O)O [Compound 17, 2′-O-[4-(N,N-diethyl)amino-2(S)-fluorobutyryl]paclitaxel fumarate] | 133.6 ± 9.4 mm^3 | −8.1% | −44% | 55.7 ± 10.1 mm^3 | 114% | –
CC(=O)O[C@H]1C(=O)[C@@]2(C)[C@H]([C@H](OC(=O)c3ccccc3)[C@]3(O)C[C@H](OC(=O)[C@H](OC(=O)C(F)CCN(C)C(C)C)[C@@H](NC(=O)c4ccccc4)c4ccccc4)C(C)=C1C3(C)C)[C@]1(OC(C)=O)CO[C@@H]1C[C@@H]2O.Cl (stereo partly drawn) [Compound 18, 2′-O-[4-(N-methyl-N-isopropyl)amino-2(R,S)-fluorobutyryl]paclitaxel hydrochloride] | 127.9 ± 11.4 mm^3 | −10.3% | −38% | 60.4 ± 12.3 mm^3 | 98% | –
CC(=O)O[C@H]1C(=O)[C@@]2(C)[C@H]([C@H](OC(=O)c3ccccc3)[C@]3(O)C[C@H](OC(=O)[C@H](OC(=O)[C@H](F)CCCN(C)C)[C@@H](NC(=O)c4ccccc4)c4ccccc4)C(C)=C1C3(C)C)[C@]1(OC(C)=O)CO[C@@H]1C[C@@H]2O.O=C(O)/C=C\C(=O)O [Compound 21, 2′-O-[5-(N,N-dimethyl)amino-2(R)-fluorovaleryl]paclitaxel maleate] | 135.8 ± 14.7 mm^3 | −9.4% | −23% | 70.8 ± 16.8 mm^3 | 60% | –
CC(=O)O[C@H]1C(=O)[C@@]2(C)[C@H]([C@H](OC(=O)c3ccccc3)[C@]3(O)C[C@H](OC(=O)[C@H](OC(=O)[C@@H](F)CCN(C)C)[C@@H](NC(=O)c4ccccc4)c4ccccc4)C(C)=C1C3(C)C)[C@]1(OC(C)=O)CO[C@@H]1C[C@@H]2O.CS(=O)(=O)O [Compound C2, 2′-O-[4-(N,N-dimethyl)amino-2(S)-fluorobutyryl]paclitaxel methanesulfonate] | – | −5.8% | −61% | 51.2 ± 11.2 mm^3 | 158% | dissociation percent ([4]; 2 min): 62.8%; dissociation percent ([4]; 5 min): 96.5%; dissociation percent ([4]; 10 min): 100%; dissociation percent ([5]; 5 min): 69.7%; dissociation percent ([5]; 20 min): 98.1%; dissociation percent ([5]; 60 min): 100%
CC(=O)O[C@H]1C(=O)[C@@]2(C)[C@H]([C@H](OC(=O)c3ccccc3)[C@]3(O)C[C@H](OC(=O)[C@H](OC(=O)[C@H](F)CCN(C)C)[C@@H](NC(=O)c4ccccc4)c4ccccc4)C(C)=C1C3(C)C)[C@]1(OC(C)=O)CO[C@@H]1C[C@@H]2O.CS(=O)(=O)O [Compound C1, 2′-O-[4-(N,N-dimethyl)amino-2(R)-fluorobutyryl]paclitaxel methanesulfonate] | 133.6 ± 9.5 mm^3 | −5.9% | −63% | – | 163% | dissociation percent ([4]; 2 min): 64.3%; dissociation percent ([4]; 5 min): 97.0%; dissociation percent ([4]; 10 min): 100%; dissociation percent ([5]; 5 min): 77.2%; dissociation percent ([5]; 20 min): 98.4%; dissociation percent ([5]; 60 min): 100%
CC(=O)O[C@H]1C(=O)[C@@]2(C)[C@H]([C@H](OC(=O)c3ccccc3)[C@]3(O)C[C@H](OC(=O)[C@H](OC(=O)C(CCN(C)C)C(F)F)[C@@H](NC(=O)c4ccccc4)c4ccccc4)C(C)=C1C3(C)C)[C@]1(OC(C)=O)CO[C@@H]1C[C@@H]2O.Cl (stereo partly drawn) [Compound 20, 2′-O-[4-(N,N-dimethyl)amino-2(R,S)-2-difluoromethylbutyryl]paclitaxel hydrochloride] | 133.4 ± 12.6 mm^3 | −8.4% | −35% | 61.2 ± 13.5 mm^3 | 91% | –
